Reference: publication PMC6316436, “Design of Linear and Cyclic Mutant Analogues of Dirucotide Peptide (MBP82–98) against Multiple Sclerosis: Conformational and Binding Studies to MHC Class II” (Brain Sciences, 2018)
Entries after “also recorded” stand apart in the source; their conditions may differ. Where two headings read alike, the source gives them in different places. Blank lines part the entries; values can stand above or below the substance they belong to. Ends that are not written are not given here.

Tests used:
HLA-DR2 = assay: Competition binding of MBP82–98 analogues to HLA-DR2 (AMCA-labeled MBP83–99 competitor); parameters: species or system human; details: 37 °C; for binding affinity to HLA-DR2 (competition), in words: triplicates
HLA-DR4 = assay: Competition binding of MBP82–98 analogues to HLA-DR4 (AMCA-labeled HA306–318 competitor); parameters: species or system human; details: 37 °C; for binding to HLA-DR4, overall statement: competition with AMCA-labeled HA306–318, 48 h, pH 6.0
autoreactive T cells = details: intravenous injections, preclinical and clinical studies; ref [15]; cited from earlier work
Source text: Dirucotide is licensed to BioMS Medical Corp and shared the development with Eli Lilly and Company. […] Thus, in the populat ...

[1] = test system: CD4^+CD25^+Foxp3^+ regulatory T cells; details: ref [18], cited from earlier work
Source text: (§1) Dirucotide is licensed to BioMS Medical Corp and shared the development with Eli Lilly and Company. […] As a result, further planned/scheduled clinical trials were terminated. […] It is likely that ...

patients with MS = details: ref [16], cited from earlier work
Source text: as §1

[2] = test system: patients with relapsing remitting MS and secondary progressive MS; details: phase III, cited from earlier work
Source text: as §1

[3] = test system: experimental autoimmune encephalomyelitis (EAE); details: compared to linear PLP139–151 peptide; ref [30]; cited from earlier work
Source text: The cyclization of peptides is of great interest, since the partial stability of linear peptides restricts them as potential therapeutics. We have extensively studied cyclic peptides for their enhanced stability and their potential to be used as immunotherapeutics in MS due to their altered three-dimensional conformation. […] Similarly, cyclization of the agonist proteolipid protein (PLP139–151) epit ...

[4] = phase II, HLA-DR2 and HLA-DR4 patients with MS

binding affinity to HLA-DR2 (competition), in words (HLA-DR2; 10-fold and 20-fold excess, AMCA-labeled MBP83–99, 48 h, pH 6.0, HPSEC fluorescence, relative to linear agonist MBP82–98): bound with much lower affinity
Substance: DENPVVHFFA^91NIVTPRT [linear MBP82–98 (Ala^91), linear altered peptide ligand of dirucotide, K91 mutated to Ala]
binding affinity to HLA-DR2 (competition), in words (HLA-DR2; 50-fold excess, AMCA-labeled MBP83–99, 48 h, pH 6.0, HPSEC fluorescence): comparable to linear agonist MBP82–98 peptide at 50-fold excess | binding to HLA-DR4, overall statement (HLA-DR4): considerable higher affinity than cyclic MBP82–98

Substance: DENPVVHFFK^91NIVTPRT [dirucotide, 17-mer linear peptide MBP82–98]
suppression of autoreactive T cells (autoreactive T cells): suppress autoreactive T cells | induction of CD4+CD25+Foxp3+ regulatory T cells ([1]; following injection in patients with MS): induce CD4^+CD25^+Foxp3^+ regulatory T cells | number of CD4+CD25+Foxp3+ regulatory T cells ([1]; six weeks and six months after treatment): increase in the number of CD4^+CD25^+Foxp3^+ regulatory T cells | T cell responses against MBP82–98 epitope (patients with MS; injected in high concentrations in patients with MS): suppressed T cell responses against MBP82–98 epitope | safety (patients with MS; [4]): safe | time to disease progression (patients with MS; [4]): prolonged the median time to disease progression | time to disease progression (patients with MS; phase II, HLA-DR2 and HLA-DR4 patients with MS, listed as Dirucotide): delayed disease progression | benefit versus placebo ([2]; 612 subjects, ref [17]): did not provide any benefit compared to placebo | primary and secondary endpoints ([2]; 612 subjects, ref [17]): no enhanced primary and secondary endpoints achieved | benefit versus placebo ([2]; relapsing remitting MS and secondary progressive MS, ref [17],[18]): no added benefit was noted compared to the placebo group

Substance: cyclic PLP139–151: cyclized agonist proteolipid protein (PLP139–151) epitope (CHCLGKWLGHPDK; also: cyclized; UniProt P60202 139-151, looked up, fragment)
disease burden and pathology [3]: low disease burden, and minimal inflammatory, demyelinating, and axonopathic pathology compared to the linear PLP139–151 peptide

Substance: cycloDENPVVHFFK^91NIVTPRT (head to tail) [cyclic MBP82–98, head to tail cyclized dirucotide]
binding affinity to HLA-DR2 (competition), in words (HLA-DR2; 10-fold, 20-fold and 50-fold excess over AMCA-labeled MBP83–99 (1 μM), 48 h, 150 mM sodium phosphate pH 6.0, 15% acetonitrile, 0.1% Zwittergent-12, HPSEC fluorescence 350/450 nm): reduced affinity compared to its linear counterpart at 10-fold, 20-fold and 50-fold excess, but still with comparable affinity | binding to HLA-DR2, overall statement (HLA-DR2; overall, competition with AMCA-labeled MBP83–99, 48 h, pH 6.0): strong binder with the HLA-DR2 allele; also recorded: binds to HLA-DR2 and HLA-DR4 alleles with considerable affinity; also recorded: higher affinity than MBP82–98 (A^91) | binding affinity to HLA-DR4 (competition), in words (HLA-DR4; 10-fold, 20-fold, 50-fold excess over AMCA-labeled HA306–318 (1 μM), 48 h, 150 mM sodium phosphate pH 6.0, 15% acetonitrile, 0.1% Zwittergent-12, HPSEC fluorescence 350/450 nm, triplicates): considerably lower compared to its linear counterpart and linear APL MBP82–98 (Ala^91) | binding to HLA-DR4, overall statement (HLA-DR4): lower affinity binding to the HLA-DR4 allele; also recorded: binds to HLA-DR2 and HLA-DR4 alleles with considerable affinity
